{"source": "patent US20230416852A1", "about": "“METHODS FOR IDENTIFYING COMPOSITIONS FOR INHIBITING VIRAL INFECTIVITY” (priority 2020, published 2023)", "key": {"[1]": {"biological_target": "T1, Vif function of inhibiting A3G CDA (Human immunodeficiency virus type 1 group M subtype B, UniProt P69723)", "T1 sequence (P69723 whole entry)": "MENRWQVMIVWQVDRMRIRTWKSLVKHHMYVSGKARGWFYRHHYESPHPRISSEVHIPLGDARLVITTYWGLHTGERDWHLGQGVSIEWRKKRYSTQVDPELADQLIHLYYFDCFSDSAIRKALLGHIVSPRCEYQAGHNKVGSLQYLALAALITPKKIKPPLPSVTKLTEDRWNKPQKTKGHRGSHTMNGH", "experiment": "biochemical", "format": "biochemical, HIV-1", "conditions": "for hit for restoring A3G CDA in the presence of Vif: 10 μM compounds, 20% cutoff stringency, i.e. 20% increase in A3G CDA versus controls, positive control set as 1", "excerpt": "The A3G CDA edits the CCC sequence to predominantly to a CCU sequence. To specifically measure the C to U rate, three reverse primers R1, R2, and R3 were designed in the initial study.\nUsing the qPCR-based screening assay described in Example 1, the NCI Diversity Set VI, NCI Mech Set V, and NIH SMR were screened against Vif function of inhibiting A3G. The NCI Diversity Set VI was derived from almost 140,000 compounds available for distribution in the library of the NCI Developmental Therapeutics Program. […] The qPCR-based CDA assay was used to screen the libraries in 96-well plates with negative controls (no A3G and Vif), positive control (no Vif), and 10 μM compounds. Hits were selected at 20% cutoff stringency (above 0.2), i.e., 20% increase in A3G CDA versus controls. Any compounds that restored A3G activity by 20% or more were selected. The positive control was set as 1."}, "[2]": {"biological_target": "T1, Vif function of inhibiting A3G CDA", "format": "biochemical, HIV-1", "excerpt": "This assay detects C to U mutation using a highly specific Stu I restriction enzyme digestion method. FIG. 4A is a schematic diagram of the PCR and restriction digestion-based CDA assay. CCC-150 is converted to CCU-150 under the enzymatic activity of A3G. […] In the presence of Vif, Vif will inhibit A3G enzymatic activity, so that reduced or no CCU-150 will be produced. Therefore, less or no Stu I cutting sites will form, and no digestion will occur.\nThe CDA products were subjected to PCR followed by Stu I digestion. The digestion products were applied to a 10% polyacrylamide gel for separation. SYBR Gold was used to visualize the bands. L-Cefixime refers to Compound I identified above."}, "HIV IIIB virus": {"system": "HIV IIIB virus", "experiment": "MAGI assay of HIV infectivity in TZM-bl cells", "format": "cell-based, HIV-1", "conditions": "Human immunodeficiency virus 1, IIIB, 48 h, read-out: IC50 antiviral activity", "excerpt": "MAGI assay is a classical method for measuring HIV infectivity (Platt E J et at J Virol 72:2855-2864 (1998)). The assay involves HIV infecting a reporter cell line, the TZM-bl cell line (Platt E J et at J Virol 72:2855-2864 (1998); Derdeyn C A et al. J Virol 74:8358-8367 (2000); Wei X et al. Antimicrob Agents Chemother 46:1896-1905 (2002)). The TZM-bl cell line is a Hela cell derivative that expresses CD4, rendering the cells permissive to HIV-1 infection. These cells also contain an integrated LTR-luciferase and β-galactosidase reporter genes, resulting in expression of firefly luciferase and β-galactosidase protein following HIV-1 integration and subsequent expression of the viral transactivator, Tat.\n300 ng of p24 content of HIV IIIB virus was used to infect TZM-bl cells. Different doses of Compound II (redoxal) and C5 were used to treat the infected cells. DMSO treatment was used as a control. Two days post-infection, cells were fixed and β-galactosidase was stained to visualize the infected cells."}, "HIV in PBMC": {"system": "HIV in PBMC", "conditions": "previous report, Pery E et al. Virology 2015; cited from earlier work"}, "[3]": {"system": "A3G expression, Gag expression and processing", "experiment": "Western blot of A3G stability and Gag in transfected 293T cells", "format": "cell-based", "conditions": "5 μM", "procedure": "An A3G expression vector was co-transfected with Vif, or with the empty vector as control. The A3G expression vector was also co-transfected with either a wild-type viral construct HXB2, Vif deficient viral construct HXB2ΔVif, or pcDNA3.1 (as a control) into 293T cells. Immediately following transfection, 5 μM Compound II (redoxal) was used to treat the 293T cells. After 48 hours post-transfection, culture supernatants were subjected to ultracentrifuge to pellet down the virus. Viral lysates were analyzed by Western blot."}, "[4]": {"biological_target": "T1, Vif function of inhibiting A3G CDA", "format": "biochemical, HIV-1", "conditions": "dose-response retest in qPCR-based CDA assay"}}, "note": "Where two headings read alike, the source gives them in different places.", "data": [{"smiles": "C=CC1=C(C(=O)O)N2C(=O)[C@@H](NC(=O)/C(=N\\OCC(=O)O)c3csc(N)n3)[C@H]2SC1", "note": "[Compound I, cefixime, reference compound]", "values": [{"measurement": "EC50", "setting": "[1]", "value": "> 500", "unit": "µM"}, {"measurement": "hit for restoring A3G CDA in the presence of Vif", "setting": "[1]", "value": "hits"}, {"measurement": "restoration of Stu I digestion product", "setting": "[2]; 10 μM", "value": "dramatically restored the digestion product"}]}, {"smiles": "COc1cc(-c2ccc(Nc3ccccc3C(=O)O)c(OC)c2)ccc1Nc1ccccc1C(=O)O", "note": "[Compound II, redoxal]", "values": [{"measurement": "EC50", "setting": "[1]", "value": "< 12.5", "unit": "µM"}, {"measurement": "hit for restoring A3G CDA in the presence of Vif", "setting": "[1]", "value": "hits"}, {"measurement": "IC50", "setting": "HIV IIIB virus", "value": "< 4", "unit": "µM"}, {"measurement": "IC50", "setting": "HIV in PBMC", "value": "0.6 to 3", "unit": "µM"}, {"measurement": "restoration of Stu I digestion product", "setting": "[2]; 50 μM", "value": "dramatically restored the digestion product"}, {"measurement": "A3G expression", "setting": "[3]; FIG. 8", "value": "enhances A3G expression independent of Vif"}, {"measurement": "Gag processing patterns", "setting": "[3]; FIG. 8", "value": "may alter Gag processing patterns"}, {"measurement": "overall Gag expression", "setting": "[3]; FIG. 8", "value": "reduces overall Gag expression"}, {"measurement": "overall Gag expression", "setting": "[3]; FIG. 8, listed as redoxal", "value": "reduced overall Gag expression"}]}, {"smiles": "Cn1c(SCc2ccccn2)nc2c1c(=O)[nH]c(=O)n2C", "note": "[Compound VII]", "values": [{"measurement": "hit for restoring A3G CDA in the presence of Vif", "setting": "[1]", "value": "hits"}]}, {"smiles": "Oc1ccccc1-c1nc2c3ccccc3c3ccccc3c2[nH]1", "note": "[Compound VI]", "values": [{"measurement": "hit for restoring A3G CDA in the presence of Vif", "setting": "[1]", "value": "hits"}]}, {"smiles": "O=c1c2ccccc2ncn1-c1ccc(Cl)cc1", "note": "[Compound V]", "values": [{"measurement": "hit for restoring A3G CDA in the presence of Vif", "setting": "[1]", "value": "hits"}]}, {"smiles": "O=c1c(-c2ccc(O)cc2)coc2cc(O)cc(O)c12", "note": "[III, genistein]", "values": [{"measurement": "hit for restoring A3G CDA in the presence of Vif", "setting": "[1]", "value": "hits"}, {"measurement": "activity in retest", "setting": "[4]", "value": "did not show any activity"}]}, {"smiles": "C[C@@H]1C/C=C/C=C/C=C/C=C/[C@H](O[C@@H]2O[C@H](C)[C@@H](O)[C@H](N)[C@@H]2O)C[C@@H]2O[C@](O)(C[C@@H](O)C[C@H]3O[C@@H]3/C=C/C(=O)O1)C[C@H](O)[C@H]2C(=O)O", "note": "[IV, natamycin, reference compound]", "values": [{"measurement": "hit for restoring A3G CDA in the presence of Vif", "setting": "[1]", "value": "hits"}, {"measurement": "activity in retest", "setting": "[4]", "value": "did not show any activity"}]}]}
